From US11547681B2, “N-acylethanolamide derivatives and uses thereof” (ELIEM THERAPEUTICS, INC., priority 2016, dated 2023)

Legend:
[1] = Simulated intestinal fluid stability, SIF containing pancreatin; assay type: in vitro ADME; settings: for % Remaining of Initial (n = 1): 1 μM (Example 14); for Measured Concentration of Drug: test article dosed at 1 μM (Example 14)
Experimental: (§1) Studies were carried out in simulated intestinal fluid containing pancreatin. Simulated intestinal fluid was prepared by dissolving 6.8 g of monobasic potassium phosphate in 1.0 L of water. Pancreatin was then added to the solution and the pH was adjusted to 6.8. A DMSO stock was first prepared for the test articles. Aliquots of the DMSO solution were dosed into 300 μL of matrix, which had been pre-warmed to 37° C., at a final test article concentration of 1 μM. An individual tube was dosed for each time point. At each time point (0, 15, 30, 60, and 120 minutes), 900 μL of ice-cold acetonitrile containing 1.0% formic acid was added to an individual tube. Starting time for each tube was staggered such that all timepoints would finish at the same time. After the conclusion of the experiment, tubes were mixed and then centrifuged at 3,000 rpm for 10 minutes. Calibration standards were prepared in matched matrix. […] Analytical conditions are outlined in Appendix 11-1.
as §1, with “prepared for test articles.” for “prepared for the test articles.”, “Aliquots of DMSO solution” for “Aliquots of the DMSO solution”, “individual tube. The starting time for” for “individual tube. Starting time for”, “that all time points would finish” for “that all timepoints would finish”, “in Appendix 14-1.” for “in Appendix 11-1.”

[2] = male, Sprague-Dawley, rat, in vivo, po
[3] = Summary of half life data (Table A), matrix not stated; assay type: in vitro ADME
[4] = Plasma stability (37° C., pH 7.4), human; assay type: in vitro ADME; settings: for half-life at 1 μM: both sexes, human, plasma, pH 7.4, human plasma, read-out: Half-life; for % Remaining of Initial: human plasma, 1 μM, n = 1
Experimental: (§2) Studies were carried out in mixed-gender human plasma (Lot #GLP530-5), male Sprague-Dawley rat (Lot #RAT297944, RAT313140), male CD-1 mouse (Lot #MSE237700), and male Beagle dog (Lot #BGL87670, BGL82614), collected on sodium heparin. Plasma was adjusted to pH 7.4 prior to initiating the experiments. DMSO stocks were first prepared for the test articles. Aliquots of the DMSO solutions were dosed into 700 μL of plasma, which had been pre-warmed to 37° C., at a final test article concentration of 1 μM. […] Samples were stored at 4° C. until the end of the experiment. After the final time point was sampled, the plate was mixed and then centrifuged at 3,000 rpm for 10 minutes. Calibration standards were prepared in matched matrix. […] Analytical conditions are outlined in Appendix 8-1.
as §2, with “#AS1650-2),” for “#GLP530-5),”, “#RAT297944),” for “#RAT297944, RAT313140),”, “CD-I” for “CD-1”, “#BGL91384),” for “#BGL87670, BGL82614),”, “10-1.” for “8-1.”
(§3) Studies were carried out in mixed-gender human plasma (Lot #AS1650-2), male Sprague-Dawley rat (Lot #RAT297944), male CD-1 mouse (Lot #MSE237700), and male Beagle dog (Lot #BGL91384), collected on sodium heparin. Plasma was adjusted to pH 7.4 prior to initiating the experiments. DMSO stocks were first prepared for test articles. […] Samples were stored at 4° C. until the end of experiment. After the final time point was sampled, the plate was mixed and then centrifuged at 3,000 rpm for 10 minutes. Calibration standards were prepared in matched matrix. […] Analytical conditions are outlined in Appendix 13-1.
(§4) Studies were carried out in mixed-gender human plasma (Lot #AS 1650-2), male Sprague-Dawley rat (Lot #RAT320835), male CD-1 mouse (Lot #MSE260693), and 6 male Beagle dog (Lot #BGL91384), on sodium heparin. Plasma was adjusted to pH 7.4 prior to initiating the experiments. DMSO stocks were first prepared for the test articles. Aliquots of the DMSO solutions were dosed into 700 μL of plasma, which had been pre-warmed to 37° C., at a final test article concentration of 1 μM. […] Samples were stored at 4° C. until the end of the experiment. After the final time point was sampled, the plate was mixed and then centrifuged at 3,000 rpm for 10 minutes. Calibration standards were prepared in matched matrix. […] Analytical conditions are outlined in Appendix 17-1.

[5] = Plasma stability (37° C., pH 7.4), rat; assay type: in vitro ADME, Sprague-Dawley rat; settings: for half-life at 1 μM: male, Sprague-Dawley, rat, plasma, pH 7.4, rat plasma; for % Remaining of Initial: rat plasma, 1 μM, n = 1
Experimental: as §2
as §2, with “#AS1650-2),” for “#GLP530-5),”, “#RAT297944),” for “#RAT297944, RAT313140),”, “CD-I” for “CD-1”, “#BGL91384),” for “#BGL87670, BGL82614),”, “10-1.” for “8-1.”
as §3, §4

Compound | % Remaining of Initial (n = 1) ([1]; 0 min) | Measured Concentration of Drug ([1]; 0 min) | % Remaining of Initial (n = 1) ([1]; 15 min) | Measured Concentration of Drug ([1]; 15 min) | % Remaining of Initial (n = 1) ([1]; 30 min) | Measured Concentration of Drug ([1]; 30 min) | % Remaining of Initial (n = 1) ([1]; 60 min) | Measured Concentration of Drug ([1]; 60 min) | % Remaining of Initial (n = 1) ([1]; 120 min) | Measured Concentration of Drug ([1]; 120 min) | Bioavailability [2] | half-life [3] | half-life at 1 μM [4] | % Remaining of Initial ([4]; 0 min) | % Remaining of Initial ([4]; 15 min) | % Remaining of Initial ([4]; 30 min) | % Remaining of Initial ([4]; 60 min) | % Remaining of Initial ([4]; 120 min) | half-life at 1 μM ([5]; read-out: Half-life) | % Remaining of Initial ([5]; 0 min) | also measured
CCCCCCCCCCCCCCCC(=O)NCCOC(=O)CCC(=O)OC(CO)CO [Compound I-8] | 100% | 0.94 µM | 17% | 0.16 µM | 6.8% | 0.064 µM | <1.3% | 0 µM | <1.3% | 0 µM | 17.3% | 6.2 min | < 1 min | 100% | <1.0% | <1.0% | <1.0% | <1.0% | < 1 min | 100% | half-life at 1 μM ([1]; simulated intestinal fluid with pancreatin, pH 6.8, 1 μM (Example 14)): 6.2 min; Dose-normalized AUC∞ of PEA [2]: 11.2 kg·ng·h/mL/mg; % Remaining of Initial ([5]; 15 min): <1.0%; % Remaining of Initial ([5]; 30 min): <1.0%; % Remaining of Initial ([5]; 60 min): <1.0%; % Remaining of Initial ([5]; 120 min): <1.0%
CCCCCCCCCCCCCCCC(=O)NCCOC(=O)CCC(=O)OC(COC(=O)CCC)COC(=O)CCC [Compound I-16] | 100% | 0.088 µM | <4.5% | 0 µM | <4.5% | 0 µM | <4.5% | 0 µM | <4.5% | 0 µM | 12.1% | < 1 min | 31 min | 100% | 78% | 51% | 24% | 5.8% | < 15 min | 100% | half-life at 1 μM ([5]; read-out: Half-life, calculated value in parentheses): 6.9 min; % Remaining of Initial ([5]; 15 min): 20%; % Remaining of Initial ([5]; 30 min): 9.3%; % Remaining of Initial ([5]; 60 min): 4.1%; % Remaining of Initial ([5]; 120 min): 1.6%
